{"source": "patent US12042492B2", "about": "(priority 2020, dated 2024)", "key": {"[1]": {"test_system": "N2a cells", "test": "qRT-PCR mRNA expression in N2a cells treated with ligand 1", "format": "cell-based, mouse", "procedure": "(§1) The N2a cells grown for 6 days in a serum-free medium (1:1 mixture of DMEM and OptiMEM, plus penicillin and streptomycin (Invitrogen, Carlsbad, CA, USA) until the cells developed neuronal processes. As shown in (FIG. 10), these cells were used for 4 groups—one control group and 3 treatment groups. 1) untreated N2a cells (the control group), 2) N2a cells treated with ligand 1 (N2a+ligand 1), 3) N2a cells transfected mAPP with the (lipofectamine) (20 μM final concentration for 6 hrs (mAPP), 4) N2a cells transfected with mAPP cDNA for 6 hrs, treated with ligand 1 (mAPP+ligand 1 treatment group), N2a cells treated with ligand 1 for 24 hrs and then treated with the mAPP cDNA for 6 hrs (ligand 1+mAPP treatment group). As shown in (FIG. 10), the inventors performed 4 independent cell cultures and treatments for all experiments (n=4).\n(§2) mRNA levels of mitochondrial dynamics and mitochondrial biogenesis and synaptic genes. Using the reagent TriZol (Invitrogen), the inventors isolated total RNA from 4 independent treatments of N2a cells (n=4) from control (untreated N2a cells) and experimental treatments (N2a cells treated with Ligand 1; N2a cells transfected with mAPP; N2a cells transfected with mAPP and then treated with Ligand 1. Using primer express Software (Applied Biosystems), the inventors designed the oligonucleotide primers for the housekeeping genes β-actin, GDPH; APP-related genes (APP, BACE1 and PSN1); mitochondrial structural genes; fission (Drp1 and Fis1); fusion genes (MFN1, MFN2, Opa1) (54), mitochondrial biogenesis genes (PGC1α, Nrf1, Nrf2, and Tfam) (Manczak et al., 2019), and synaptic proteins (SYN, PSD95 and MAP2). The primer sequences and amplicon sizes are listed in (Table 1). With SYBR-Green chemistry-based quantitative real-time RT-PCR, the inventors measured mRNA expression of the genes mentioned above as described by Manczak et al. 2019(54). Briefly, 2 μg of DNAse-treated total RNA was used as starting material, to which the inventors added 1 μl of oligo (dT), 1 μl of 10 mM dNTPs, 4 μl of 5× first strand buffer, 2 μl of 0.1 M DTT, and 1 μl RNAse outout. The reagents RNA, dT), and dNTPs were mixed first, then heated at 65° C. for 5 min, and finally chilled on ice until the remaining components were added. The samples were incubated at 42° C. for 2 min, and then 1 μl of Superscript II (40 U/μl) was added. The samples were then incubated at 42° C. for 50 min, at which time the reaction was inactivated by heating at 70° C. for 15 min.\n(§3) Quantitative real-time PCR amplification reactions were performed in N2a cells in an ABI Prism 7900 sequence detection system (Applied Biosystems, Foster City, CA) in a 25-μl volume of total reaction mixture. The reaction mixture consisted of 1×PCR buffer containing SYBR-Green; 3 mM MgCl2; 100 nm of each primer; 200 nm of dATP, dGTP, and dCTP each; 400 nm of dUTP; 0.01 U/μl of AmpErase UNG; and 0.05 U/μl of AmpliTaq Gold. A 20 ng cDNA template was added to each reaction mixture.\n(§4) The CT-values of β-actin was tested to determine the unregulated endogenous reference gene in N2a cells that were treated with Aβ and protective molecules, and in untreated N2a cells. In the latter case, the CT-value was similar in untreated and N2a cells treated with MTAs and Aβ. The CT-value is an important quantitative parameter in real-time PCR analysis as described in Gutala and Reddy (2004) (55). All RT-PCR reactions were carried out in triplicate, with no template control. The PCR conditions were: 50° C. for 2 min and 95° C. for 10 min, followed by 40 cycles of 95° C. for 15 sec and 60° C. for 1 min. The fluorescent spectra were recorded during the elongation phase of each PCR cycle. To distinguish specific amplicons from non-specific amplifications, a dissociation curve was generated. […]"}, "[2]": {"test_system": "mAPP N2a cells", "test": "qRT-PCR mRNA expression in mAPP N2a cells treated with ligand 1", "format": "cell-based, mouse", "procedure": "as §1, §2, §3, §4"}, "[3]": {"conditions": "N2a + Ligand1 relative to untreated N2a cells"}, "[4]": {"conditions": "N2a + Ligand1 relative to untreated N2a cells, negative = decrease"}, "[5]": {"conditions": "ligand 1 treated N2a cells relative to untreated cells, size of the decrease"}, "[6]": {"conditions": "ligand 1 treated N2a cells relative to untreated cells, size of the decrease, no statistical significance"}, "[7]": {"conditions": "N2a + mAPP + ligand1 relative to mAPP N2a cells"}, "[8]": {"conditions": "N2a + mAPP + ligand1 relative to mAPP N2a cells, listed as ligand 1"}, "[9]": {"conditions": "N2a + mAPP + ligand1 relative to mAPP N2a cells, listed as ligand1"}, "[10]": {"conditions": "N2a + mAPP + ligand1 relative to mAPP N2a cells, negative = decrease"}, "[11]": {"conditions": "N2a + mAPP + ligand1 relative to untreated N2a cells"}, "[12]": {"conditions": "ligand 1 treated mAPP cells relative to mAPP cells, size of the decrease, P<0.05"}}, "note": "Marks after values point to notes of the source that are not given here."}
{"substance": "[(6As,8S,10aS,12aS)-10a, 12a-dimethyl-2-oxo-3,4,4a,4b,5,6,6a,7,8,9,10,10b,11,12-tetradecahydro-1H-naphtho[2,1-f]quinolin-8-yl] 4-[4-[bis(2-chloroethyl)amino]phenyl]butanoate [Ligand 1]", "values": [{"measurement": "mRNA fold change Mfn1", "setting": "[1]; [3]", "value": 1.1, "unit": "fold"}, {"measurement": "mRNA fold change Mfn2", "setting": "[1]; [3]", "value": 1.2, "unit": "fold"}, {"measurement": "mRNA fold change Nrf1", "setting": "[1]; [3]", "value": 1.2, "unit": "fold"}, {"measurement": "mRNA fold change Nrf2", "setting": "[1]; [3]", "value": 1.3, "unit": "fold"}, {"measurement": "mRNA fold change OPA1", "setting": "[1]; [3]", "value": 1.4, "unit": "fold"}, {"measurement": "mRNA fold change PSD95", "setting": "[1]; [3]", "value": 1.2, "unit": "fold"}, {"measurement": "mRNA fold change Synaptophysin", "setting": "[1]; [3]", "value": 1.4, "unit": "fold"}, {"measurement": "mRNA fold change TFAM", "setting": "[1]; [3]", "value": 1.2, "unit": "fold"}, {"measurement": "mRNA fold change PGC1a", "setting": "[1]; N2a + Ligand1 relative to untreated N2a cells, listed as Ligand1", "value": "1.6* fold"}, {"measurement": "mRNA fold change PGC1a", "setting": "[1]; N2a + Ligand1 relative to untreated N2a cells, listed as ligand 1", "value": 1.6, "unit": "fold"}, {"measurement": "mRNA fold change APP", "setting": "[1]; [4]", "value": "−1.2", "unit": "fold"}, {"measurement": "mRNA fold change BACE1", "setting": "[1]; [4]", "value": "−1.8** fold"}, {"measurement": "mRNA fold change Drp1", "setting": "[1]; [4]", "value": "−1.1", "unit": "fold"}, {"measurement": "mRNA fold change Fis1", "setting": "[1]; [4]", "value": "−1.1", "unit": "fold"}, {"measurement": "mRNA fold change Presenilin1", "setting": "[1]; [4]", "value": "−1.3", "unit": "fold"}, {"measurement": "APP mRNA, fold decreased", "setting": "[1]; [5]", "value": 1.8, "unit": "fold"}, {"measurement": "BACE1 mRNA, fold decreased", "setting": "[1]; [5]", "value": 1.2, "unit": "fold"}, {"measurement": "PS1 mRNA, fold decreased", "setting": "[1]; [5]", "value": 1.3, "unit": "fold"}, {"measurement": "Drp1 mRNA, fold reduced", "setting": "[1]; [6]", "value": 1.1, "unit": "fold"}, {"measurement": "Fis1 mRNA, fold reduced", "setting": "[1]; [6]", "value": 1.1, "unit": "fold"}, {"measurement": "mRNA fold change Mfn1", "setting": "[2]; [7]", "value": 1.3, "unit": "fold"}, {"measurement": "mRNA fold change OPA1", "setting": "[2]; [7]", "value": 1.2, "unit": "fold"}, {"measurement": "mRNA fold change Mfn2", "setting": "[2]; [8]", "value": 1.5, "unit": "fold"}, {"measurement": "mRNA fold change Nrf1", "setting": "[2]; [8]", "value": 2.1, "unit": "fold"}, {"measurement": "mRNA fold change Nrf2", "setting": "[2]; [8]", "value": 2.1, "unit": "fold"}, {"measurement": "mRNA fold change PGC1a", "setting": "[2]; [8]", "value": 2.0, "unit": "fold"}, {"measurement": "mRNA fold change PSD95", "setting": "[2]; [8]", "value": 1.3, "unit": "fold"}, {"measurement": "mRNA fold change Synaptophysin", "setting": "[2]; [8]", "value": 1.9, "unit": "fold"}, {"measurement": "mRNA fold change TFAM", "setting": "[2]; [8]", "value": 1.8, "unit": "fold"}, {"measurement": "mRNA fold change Mfn2", "setting": "[2]; [9]", "value": "1.5* fold"}, {"measurement": "mRNA fold change Nrf1", "setting": "[2]; [9]", "value": "2.1** fold"}, {"measurement": "mRNA fold change Nrf2", "setting": "[2]; [9]", "value": "2.1** fold"}, {"measurement": "mRNA fold change PGC1a", "setting": "[2]; [9]", "value": "2.0** fold"}, {"measurement": "mRNA fold change PSD95", "setting": "[2]; [9]", "value": "1.8* fold"}, {"measurement": "mRNA fold change Synaptophysin", "setting": "[2]; [9]", "value": "1.9* fold"}, {"measurement": "mRNA fold change TFAM", "setting": "[2]; [9]", "value": "1.8* fold"}, {"measurement": "mRNA fold change APP", "setting": "[2]; [10]", "value": "−1.5* fold"}, {"measurement": "mRNA fold change BACE1", "setting": "[2]; [10]", "value": "−1.4* fold"}, {"measurement": "mRNA fold change Drp1", "setting": "[2]; [10]", "value": "−2.3** fold"}, {"measurement": "mRNA fold change Fis1", "setting": "[2]; [10]", "value": "−1.5* fold"}, {"measurement": "mRNA fold change Presenilin1", "setting": "[2]; [10]", "value": "−1.5* fold"}, {"measurement": "mRNA fold change APP", "setting": "[2]; [11]", "value": 1.3, "unit": "fold"}, {"measurement": "mRNA fold change BACE1", "setting": "[2]; [11]", "value": 1.1, "unit": "fold"}, {"measurement": "mRNA fold change Drp1", "setting": "[2]; [11]", "value": 1.1, "unit": "fold"}, {"measurement": "mRNA fold change Fis1", "setting": "[2]; [11]", "value": 1.0, "unit": "fold"}, {"measurement": "mRNA fold change Mfn1", "setting": "[2]; [11]", "value": "−1.2", "unit": "fold"}, {"measurement": "mRNA fold change Mfn2", "setting": "[2]; [11]", "value": 1.1, "unit": "fold"}, {"measurement": "mRNA fold change Nrf1", "setting": "[2]; [11]", "value": 1.2, "unit": "fold"}, {"measurement": "mRNA fold change Nrf2", "setting": "[2]; [11]", "value": 1.4, "unit": "fold"}, {"measurement": "mRNA fold change OPA1", "setting": "[2]; [11]", "value": 1.1, "unit": "fold"}, {"measurement": "mRNA fold change PGC1a", "setting": "[2]; [11]", "value": 1.2, "unit": "fold"}, {"measurement": "mRNA fold change PSD95", "setting": "[2]; [11]", "value": 1.3, "unit": "fold"}, {"measurement": "mRNA fold change Presenilin1", "setting": "[2]; [11]", "value": "−1.2", "unit": "fold"}, {"measurement": "mRNA fold change Synaptophysin", "setting": "[2]; [11]", "value": 1.3, "unit": "fold"}, {"measurement": "mRNA fold change TFAM", "setting": "[2]; [11]", "value": 1.5, "unit": "fold"}, {"measurement": "APP mRNA, fold decreased", "setting": "[2]; [12]", "value": 1.5, "unit": "fold"}, {"measurement": "BACE1 mRNA, fold decreased", "setting": "[2]; [12]", "value": 1.4}, {"measurement": "PSN1 mRNA, fold decreased", "setting": "[2]; [12]", "value": 1.5}, {"measurement": "Drp1 mRNA, fold reduced", "setting": "[2]; mAPP+ligand 1 treated cells relative to mAPP cells, size of the decrease, P<0.005", "value": 2.3, "unit": "fold"}, {"measurement": "Fis1 mRNA, fold reduced", "setting": "[2]; mAPP+ligand 1 treated cells relative to mAPP cells, size of the decrease, P<0.05", "value": 1.5, "unit": "fold"}]}
